# System: RPMI-8226
# Assay: Inhibition of tumor cell proliferation, CellTiter-Glo, RPMI-8226
# Type: cell-based
# Details: Homo sapiens, RPMI-8226; compound concentration 50 μM, 72 hours; read-out: Inhibitory activity against proliferation (cell survival rate) RPMI-8226
# How it was run: (§1)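 Cells seeded at 2000-10000 per well, treated immediately (suspension) or after adherence (adherent) and cultured at 37° C, 5% CO2. Viability read by CellTiter-Glo at 72 h as blank-corrected survival rate vs control. Scored at 50 μM compound: survival 60-<90% +, >30-60% ++, ≤30% +++.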
row,Structure (SMILES),cell survival rate (% of control) at 50 µM [%]
1,O=C1CCC(N2Cc3c(NC(=O)CN4CCN(CCNC=C5C(=O)CC(c6ccccc6Br)CC5=O)CC4)cccc3C2=O)C(=O)N1 (stereo not drawn) [Compound 157],≤ 30

# Same assay, conditions: compound concentration 50 μM, 72 hours
row,Structure (SMILES),Inhibitory activity against proliferation (cell survival rate) RPMI-8226
1,O=C1CCC(N2Cc3c(NC=C4C(=O)CC(c5cccc(Cl)c5F)CC4=O)cccc3C2=O)C(=O)N1 (stereo not drawn) [Compound 146],+++ (survival rate (%)≤30)
2,O=C1CCC(N2Cc3c(NC=C4C(=O)CC(c5c(F)cccc5Cl)CC4=O)cccc3C2=O)C(=O)N1 (stereo not drawn) [Compound 147],+++ (survival rate (%)≤30)
3,O=C1CCC(N2Cc3c(NC=C4C(=O)CC(c5cc(O)ccc5Br)CC4=O)cccc3C2=O)C(=O)N1 (stereo not drawn) [Compound 148],++ (30<survival rate (%)≤60)
4,O=C1CCC(N2Cc3c(NC=C4C(=O)CC(c5cc6[nH]ccc6cc5Br)CC4=O)cccc3C2=O)C(=O)N1 (stereo not drawn) [Compound 149],+++ (survival rate (%)≤30)
5,O=C1CCC(N2Cc3c(NC=C4C(=O)CC(c5c[nH]c6cccc(Cl)c56)CC4=O)cccc3C2=O)C(=O)N1 (stereo not drawn) [Compound 150],++ (30<survival rate (%)≤60)

# System: MDA-MB-453
# Assay: Inhibition of tumor cell proliferation, CellTiter-Glo, MDA-MB-453
# Type: cell-based
# Details: Homo sapiens, MDA-MB-453; compound concentration 50 μM, 72 hours; read-out: Inhibitory activity against proliferation (cell survival rate) MDA-MB-453
# How it was run: as §1
row,Structure (SMILES),cell survival rate (%) at 50 µM [%]
1,O=C1CCC(N2Cc3c(NC(=O)CN4CCN(CCNC=C5C(=O)CC(c6ccccc6Br)CC5=O)CC4)cccc3C2=O)C(=O)N1 (stereo not drawn) [Compound 157],30 to 60

# Same assay, conditions: compound concentration 50 μM, 72 hours
row,Structure (SMILES),Inhibitory activity against proliferation (cell survival rate) MDA-MB-453
1,O=C1CCC(N2Cc3c(NC=C4C(=O)CC(c5cccc(Cl)c5F)CC4=O)cccc3C2=O)C(=O)N1 (stereo not drawn) [Compound 146],+++ (survival rate (%)≤30)
2,O=C1CCC(N2Cc3c(NC=C4C(=O)CC(c5c(F)cccc5Cl)CC4=O)cccc3C2=O)C(=O)N1 (stereo not drawn) [Compound 147],++ (30<survival rate (%)≤60)
3,O=C1CCC(N2Cc3c(NC=C4C(=O)CC(c5cc(O)ccc5Br)CC4=O)cccc3C2=O)C(=O)N1 (stereo not drawn) [Compound 148],+++ (survival rate (%)≤30)
4,O=C1CCC(N2Cc3c(NC=C4C(=O)CC(c5cc6[nH]ccc6cc5Br)CC4=O)cccc3C2=O)C(=O)N1 (stereo not drawn) [Compound 149],+++ (survival rate (%)≤30)
5,O=C1CCC(N2Cc3c(NC=C4C(=O)CC(c5c[nH]c6cccc(Cl)c56)CC4=O)cccc3C2=O)C(=O)N1 (stereo not drawn) [Compound 150],+++ (survival rate (%)≤30)

# System: K562
# Assay: Inhibition of tumor cell proliferation, CellTiter-Glo, K562
# Type: cell-based
# Details: Homo sapiens, K562; compound concentration 50 μM, 72 hours; read-out: Inhibitory activity against proliferation (cell survival rate) K562
# How it was run: as §1
row,Structure (SMILES),cell survival rate (%) at 50 µM [%]
1,O=C1CCC(N2Cc3c(NC(=O)CN4CCN(CCNC=C5C(=O)CC(c6ccccc6Br)CC5=O)CC4)cccc3C2=O)C(=O)N1 (stereo not drawn) [Compound 157],≤ 30

# Same assay, conditions: compound concentration 50 μM, 72 hours
row,Structure (SMILES),Inhibitory activity against proliferation (cell survival rate) K562
1,O=C1CCC(N2Cc3c(NC=C4C(=O)CC(c5cccc(Cl)c5F)CC4=O)cccc3C2=O)C(=O)N1 (stereo not drawn) [Compound 146],+++ (survival rate (%)≤30)
2,O=C1CCC(N2Cc3c(NC=C4C(=O)CC(c5c(F)cccc5Cl)CC4=O)cccc3C2=O)C(=O)N1 (stereo not drawn) [Compound 147],+++ (survival rate (%)≤30)
3,O=C1CCC(N2Cc3c(NC=C4C(=O)CC(c5cc(O)ccc5Br)CC4=O)cccc3C2=O)C(=O)N1 (stereo not drawn) [Compound 148],++ (30<survival rate (%)≤60)
4,O=C1CCC(N2Cc3c(NC=C4C(=O)CC(c5cc6[nH]ccc6cc5Br)CC4=O)cccc3C2=O)C(=O)N1 (stereo not drawn) [Compound 149],+++ (survival rate (%)≤30)
5,O=C1CCC(N2Cc3c(NC=C4C(=O)CC(c5c[nH]c6cccc(Cl)c56)CC4=O)cccc3C2=O)C(=O)N1 (stereo not drawn) [Compound 150],++ (30<survival rate (%)≤60)

# System: SU-DHL6
# Assay: Inhibition of tumor cell proliferation, CellTiter-Glo, SU-DHL6
# Type: cell-based
# Details: Homo sapiens, SU-DHL-6; compound concentration 50 μM, 72 hours; read-out: Inhibitory activity against proliferation (cell survival rate) SU-DHL6
# How it was run: as §1
row,Structure (SMILES),cell survival rate (% of control) at 50 µM [%]
1,O=C1CCC(N2Cc3c(NC(=O)CN4CCN(CCNC=C5C(=O)CC(c6ccccc6Br)CC5=O)CC4)cccc3C2=O)C(=O)N1 (stereo not drawn) [Compound 157],≤ 30

# Same assay, conditions: compound concentration 50 μM, 72 hours
row,Structure (SMILES),Inhibitory activity against proliferation (cell survival rate) SU-DHL6
1,O=C1CCC(N2Cc3c(NC=C4C(=O)CC(c5cccc(Cl)c5F)CC4=O)cccc3C2=O)C(=O)N1 (stereo not drawn) [Compound 146],+++ (survival rate (%)≤30)
2,O=C1CCC(N2Cc3c(NC=C4C(=O)CC(c5c(F)cccc5Cl)CC4=O)cccc3C2=O)C(=O)N1 (stereo not drawn) [Compound 147],+++ (survival rate (%)≤30)
3,O=C1CCC(N2Cc3c(NC=C4C(=O)CC(c5cc(O)ccc5Br)CC4=O)cccc3C2=O)C(=O)N1 (stereo not drawn) [Compound 148],+++ (survival rate (%)≤30)
4,O=C1CCC(N2Cc3c(NC=C4C(=O)CC(c5cc6[nH]ccc6cc5Br)CC4=O)cccc3C2=O)C(=O)N1 (stereo not drawn) [Compound 149],+++ (survival rate (%)≤30)
5,O=C1CCC(N2Cc3c(NC=C4C(=O)CC(c5c[nH]c6cccc(Cl)c56)CC4=O)cccc3C2=O)C(=O)N1 (stereo not drawn) [Compound 150],+++ (survival rate (%)≤30)

# Target: LC3B (Homo sapiens (Human), UniProt Q9GZQ8)
# Assay: Fluorescence polarization experiment targeting LC3B (GST-LC3B with FITC-labeled peptide)
# Details: not given
row,Structure (SMILES),IC50 [µM]
1,O=C1CCC(N2Cc3c(NC(=O)CN4CCN(CCNC=C5C(=O)CC(c6ccccc6Br)CC5=O)CC4)cccc3C2=O)C(=O)N1 (stereo not drawn) [Compound 157],< 3

# Same assay, conditions: GST-LC3B 180 nM, FITC-labeled peptide 18 nM, 25° C.
row,Structure (SMILES),IC50 [µM]
1,O=C1CCC(N2Cc3c(NC=C4C(=O)CC(c5cccc(Cl)c5F)CC4=O)cccc3C2=O)C(=O)N1 (stereo not drawn) [Compound 146],< 3
2,O=C1CCC(N2Cc3c(NC=C4C(=O)CC(c5c(F)cccc5Cl)CC4=O)cccc3C2=O)C(=O)N1 (stereo not drawn) [Compound 147],< 3
3,O=C1CCC(N2Cc3c(NC=C4C(=O)CC(c5cc(O)ccc5Br)CC4=O)cccc3C2=O)C(=O)N1 (stereo not drawn) [Compound 148],< 3
4,O=C1CCC(N2Cc3c(NC=C4C(=O)CC(c5cc6[nH]ccc6cc5Br)CC4=O)cccc3C2=O)C(=O)N1 (stereo not drawn) [Compound 149],< 3
5,O=C1CCC(N2Cc3c(NC=C4C(=O)CC(c5c[nH]c6cccc(Cl)c56)CC4=O)cccc3C2=O)C(=O)N1 (stereo not drawn) [Compound 150],< 3

# System: BxPC-3
# Assay: Inhibition of tumor cell proliferation, CellTiter-Glo, BxPC-3
# Type: cell-based
# Details: Homo sapiens, BXPC-3; compound concentration 50 μM, 72 hours; read-out: Inhibitory activity against proliferation (cell survival rate) BxPC-3
# How it was run: as §1
row,Structure (SMILES),cell survival rate (%) at 50 µM [%]
1,O=C1CCC(N2Cc3c(NC(=O)CN4CCN(CCNC=C5C(=O)CC(c6ccccc6Br)CC5=O)CC4)cccc3C2=O)C(=O)N1 (stereo not drawn) [Compound 157],30 to 60

# Same assay, conditions: compound concentration 50 μM, 72 hours
row,Structure (SMILES),Inhibitory activity against proliferation (cell survival rate) BxPC-3
1,O=C1CCC(N2Cc3c(NC=C4C(=O)CC(c5cccc(Cl)c5F)CC4=O)cccc3C2=O)C(=O)N1 (stereo not drawn) [Compound 146],+ (60≤survival rate (%)<90)
2,O=C1CCC(N2Cc3c(NC=C4C(=O)CC(c5c(F)cccc5Cl)CC4=O)cccc3C2=O)C(=O)N1 (stereo not drawn) [Compound 147],++ (30<survival rate (%)≤60)
3,O=C1CCC(N2Cc3c(NC=C4C(=O)CC(c5cc(O)ccc5Br)CC4=O)cccc3C2=O)C(=O)N1 (stereo not drawn) [Compound 148],+ (60≤survival rate (%)<90)
4,O=C1CCC(N2Cc3c(NC=C4C(=O)CC(c5cc6[nH]ccc6cc5Br)CC4=O)cccc3C2=O)C(=O)N1 (stereo not drawn) [Compound 149],+ (60≤survival rate (%)<90)
5,O=C1CCC(N2Cc3c(NC=C4C(=O)CC(c5c[nH]c6cccc(Cl)c56)CC4=O)cccc3C2=O)C(=O)N1 (stereo not drawn) [Compound 150],+ (60≤survival rate (%)<90)

# System: A549
# Assay: Inhibition of tumor cell proliferation, CellTiter-Glo, A549
# Type: cell-based
# Details: Homo sapiens, A549; compound concentration 50 μM, 72 hours; read-out: Inhibitory activity against proliferation (cell survival rate) A549
# How it was run: as §1
row,Structure (SMILES),cell survival rate (% of control) at 50 µM [%]
1,O=C1CCC(N2Cc3c(NC(=O)CN4CCN(CCNC=C5C(=O)CC(c6ccccc6Br)CC5=O)CC4)cccc3C2=O)C(=O)N1 (stereo not drawn) [Compound 157],≤ 30

# Same assay, conditions: compound concentration 50 μM, 72 hours
row,Structure (SMILES),Inhibitory activity against proliferation (cell survival rate) A549
1,O=C1CCC(N2Cc3c(NC=C4C(=O)CC(c5cccc(Cl)c5F)CC4=O)cccc3C2=O)C(=O)N1 (stereo not drawn) [Compound 146],+ (60≤survival rate (%)<90)
2,O=C1CCC(N2Cc3c(NC=C4C(=O)CC(c5c(F)cccc5Cl)CC4=O)cccc3C2=O)C(=O)N1 (stereo not drawn) [Compound 147],+++ (survival rate (%)≤30)
3,O=C1CCC(N2Cc3c(NC=C4C(=O)CC(c5cc(O)ccc5Br)CC4=O)cccc3C2=O)C(=O)N1 (stereo not drawn) [Compound 148],+++ (survival rate (%)≤30)
4,O=C1CCC(N2Cc3c(NC=C4C(=O)CC(c5cc6[nH]ccc6cc5Br)CC4=O)cccc3C2=O)C(=O)N1 (stereo not drawn) [Compound 149],+ (60≤survival rate (%)<90)
5,O=C1CCC(N2Cc3c(NC=C4C(=O)CC(c5c[nH]c6cccc(Cl)c56)CC4=O)cccc3C2=O)C(=O)N1 (stereo not drawn) [Compound 150],+++ (survival rate (%)≤30)
